Measured values from US20250235460A1, “COMBINATION THERAPY USING GLUCOSE-DEPENDENT INSULINOTROPIC POLYPEPTIDE RECEPTOR ANTAGONIST COMPOUNDS AND GLP-1 RECEPTOR AGONIST COMPOUNDS” (Pfizer Inc., priority 2024, published 2025).
Where a name gives a salt, the structure may show the parent alone. Read-outs that look alike come from different tables or passages of the source.

Legend:
human GLP-1R [1] = biological target: human GLP-1R (Homo sapiens, UniProt P43220, G168S); test: CHO GLP-1R Clone H6 cAMP HTRF agonist assay (Assay 1, high receptor density); assay type: cell-based; details: for EC50: CHO GLP-1R clone H6, cAMP HTRF, geometric mean; for Emax: read-out: Assay 1 Emax (%)
human GLP-1R (Homo sapiens, UniProt P43220, G168S), sequence (P43220 24-463 G168S): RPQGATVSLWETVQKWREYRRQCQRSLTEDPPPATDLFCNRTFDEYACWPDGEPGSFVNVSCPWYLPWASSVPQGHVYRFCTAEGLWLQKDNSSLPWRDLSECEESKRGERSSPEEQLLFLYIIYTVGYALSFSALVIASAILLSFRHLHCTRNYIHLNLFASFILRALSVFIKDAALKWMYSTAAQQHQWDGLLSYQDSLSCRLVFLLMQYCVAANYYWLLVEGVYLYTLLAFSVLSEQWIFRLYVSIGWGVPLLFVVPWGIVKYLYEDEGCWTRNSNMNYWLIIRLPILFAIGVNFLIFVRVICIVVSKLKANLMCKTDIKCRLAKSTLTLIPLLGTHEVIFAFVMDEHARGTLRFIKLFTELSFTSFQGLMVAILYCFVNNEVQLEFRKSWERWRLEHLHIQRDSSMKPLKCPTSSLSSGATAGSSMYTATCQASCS
In short: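 Replicate runs were pooled. Potencies were averaged geometrically and maximal efficacies arithmetically, then rounded to two significant figures.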

human GLP-1R [2] = biological target: human GLP-1R (Homo sapiens, UniProt P43220, L260F); test: CHO GLP-1R Clone C6 cAMP HTRF agonist assay (Assay 2, low receptor density); assay type: cell-based; details: for EC50: CHO GLP-1R clone C6, cAMP HTRF, geometric mean; for Emax: CHO GLP-1R clone C6, arithmetic mean, relative to saturating GLP-1 (1 μM)
human GLP-1R (Homo sapiens, UniProt P43220, L260F), sequence (P43220 24-463 L260F): as the sequence (P43220 24-463 G168S) above, with S145G, L237F counted along it
From the text: In Table 5 and Table 6, assay data are presented to two (2) significant figures as the geometric mean (EC50s) and arithmetic mean (Emax) based on the number of replicates listed (Number). A blank cell means there was no data for that Example or the Emax was not calculated.

[3] = CHO GLP-1R clone H6, arithmetic mean, relative to saturating GLP-1 (1 μM)

| Compound | EC50 (human GLP-1R [1]) | Emax (human GLP-1R [1]; [3]) | EC50 (human GLP-1R [2]) | Emax (human GLP-1R [2]) | Emax (human GLP-1R [1]) |
| --- | --- | --- | --- | --- | --- |
| Cn1cnc(Cn2c(CN3CCC(c4cccc(OCc5ccc(Cl)cc5F)n4)CC3)nc3ccc(C(=O)O)cc32)c1 [Compound 255B, 2-[(4-{6-[(4-chloro-2-fluorobenzyl)oxy]pyridin-2-yl}piperidin-1-yl)methyl]-1-[(1-methyl-1H-imidazol-4-yl)methyl]-1H-benzimidazole-6-carboxylic acid] | 190 nM | 62% | 5800 nM | 85% | – |
| N#Cc1ccc(COc2cccc(C3CCN(Cc4nc5ccc(C(=O)O)cc5n4CC4CCOC4)CC3)n2)c(F)c1 (centres unmarked) [Compound 363B, 2-[(4-{6-[(4-cyano-2-fluorobenzyl)oxy]pyridin-2-yl}piperidin-1-yl)methyl]-1-(tetrahydrofuran-3-ylmethyl)-1H-benzimidazole-6-carboxylic acid] | – | 65% | – | 71% | – |
| CN1CCCC1CCn1c(CN2CCC(c3cccc(OCc4ccc(Cl)cc4F)n3)CC2)nc2ccc(C(=O)O)cc21 (centres unmarked) [Compound 284B, 2-[(4-{6-[(4-chloro-2-fluorobenzyl)oxy]pyridin-2-yl}piperidin-1-yl)methyl]-1-[2-(1-methylpyrrolidin-2-yl)ethyl]-1H-benzimidazole-6-carboxylic acid] | 18 nM | 82% | 270 nM | 83% | – |
| Cn1c(CN2CCC(c3cccc(OCc4ccc(Cl)cc4F)n3)CC2)nc2ccc(C(=O)O)nc21 [Compound 199B, 2-((4-(6-((4-Chloro-2-fluorobenzyl)oxy)pyridin-2-yl)piperidin-1-yl)methyl)-3-methyl-3H-imidazo[4,5-b]pyridine-5-carboxylic acid hydrochloride] | 1.7 nM | – | 45 nM | 83% | 67% |
| O=C(O)c1ccc2nc(CN3CCC(c4cccc(OCc5ccc(Cl)cc5F)n4)CC3)n(C[C@@H]3CCCO3)c2c1 [Compound 116B, 2-[(4-{6-[(4-chloro-2-fluorobenzyl)oxy]pyridin-2-yl}piperidin-1-yl)methyl]-1-[(2S)-tetrahydrofuran-2-ylmethyl]-1H-benzimidazole-6-carboxylic acid] | 930 nM | 86% | 9000 nM | 100% | – |
| Cc1nnc(Cn2c(CN3CCC(c4cccc(OCc5ccc(Cl)cc5F)n4)CC3)nc3ccc(C(=O)O)cc32)n1C [Compound 244B, 2-[(4-{6-[(4-chloro-2-fluorobenzyl)oxy]pyridin-2-yl}piperidin-1-yl)methyl]-1-[(4,5-dimethyl-4H-1,2,4-triazol-3-yl)methyl]-1H-benzimidazole-6-carboxylic acid] | 31 nM | 81% | 460 nM | 66% | – |
| O=C(O)c1cc2c(cn1)nc(CN1CCC(c3cccc(OCc4ccc(Cl)cc4F)n3)CC1)n2Cc1ncco1 [Compound 204B, 2-[(4-{6-[(4-chloro-2-fluorobenzyl)oxy]pyridin-2-yl}piperidin-1-yl)methyl]-1-(1,3-oxazol-2-ylmethyl)-1H-imidazo[4,5-c]pyridine-6-carboxylic acid] | 18 nM | 88% | 400 nM | 100% | – |

The remaining molecules from weak to strong by EC50 (human GLP-1R [1]), led by results:

| EC50 (human GLP-1R [1]) | Emax (human GLP-1R [1]; [3]) | EC50 (human GLP-1R [2]) | Emax (human GLP-1R [2]) | Compound | Emax (human GLP-1R [1]) |
| --- | --- | --- | --- | --- | --- |
| 12 nM | 75% | 140 nM | 82% | Cn1c(CN2CCC(c3cccc(OCc4ccc(Cl)cc4)n3)CC2)nc2ccc(C(=O)O)cc21 [Compound 225B, 2-[(4-{6-[(4-chlorobenzyl)oxy]pyridin-2-yl}piperidin-1-yl)methyl]-1-methyl-1H-benzimidazole-6-carboxylic acid] | – |
| 11 nM | 65% | 380 nM | 96% | O=C(O)c1ccc2nc(CN3CCC(c4cccc(OCc5ccc(Cl)cc5F)n4)CC3)n(CCC3CCCCO3)c2c1 (centres unmarked) [Compound 280B, 2-[(4-{6-[(4-chloro-2-fluorobenzyl)oxy]pyridin-2-yl}piperidin-1-yl)methyl]-1-[2-(tetrahydro-2H-pyran-2-yl)ethyl]-1H-benzimidazole-6-carboxylic acid] | – |
| 6.9 nM | 78% | 170 nM | 96% | COCC1(Cn2c(CN3CCC(c4cccc(OCc5ccc(Cl)cc5F)n4)CC3)nc3ccc(C(=O)O)cc32)CCC1 [Compound 347B, 2-[(4-{6-[(4-chloro-2-fluorobenzyl)oxy]pyridin-2-yl}piperidin-1-yl)methyl]-1-{[1-(methoxymethyl)cyclobutyl]methyl}-1H-benzimidazole-6-carboxylic acid] | – |
| 4.7 nM | 71% | 84 nM | 83% | CN1CC(Cn2c(CN3CCC(c4cccc(OCc5ccc(Cl)cc5F)n4)CC3)nc3ccc(C(=O)O)cc32)C1 [Compound 243B, 2-[(4-{6-[(4-chloro-2-fluorobenzyl)oxy]pyridin-2-yl}piperidin-1-yl)methyl]-1-[(1-methylazetidin-3-yl)methyl]-1H-benzimidazole-6-carboxylic acid] | – |
| 1.6 nM | 83% | 28 nM | 88% | O=C(O)c1ccc2nc(CN3CCC(c4cccc(OCc5ccc(Cl)cc5F)n4)CC3)n(CCO)c2c1 [Compound 262B, 2-[(4-{6-[(4-chloro-2-fluorobenzyl)oxy]pyridin-2-yl}piperidin-1-yl)methyl]-1-(2-hydroxyethyl)-1H-benzimidazole-6-carboxylic acid] | – |
| 0.99 nM | 95% | 10 nM | 120% | COCCn1c(CN2CC[C@H](c3cccc(OCc4ccc(Cl)cc4F)n3)[C@H](C)C2)nc2ccc(C(=O)O)cc21 (racemic) [Compound 192B, rac-2-{[(3R,4R)-4-{6-[(4-chloro-2-fluorobenzyl)oxy]pyridin-2-yl}-3-methylpiperidin-1-yl]methyl}-1-(2-methoxyethyl)-1H-benzimidazole-6-carboxylic acid] | – |
| 0.47 nM | 77% | 5 nM | 94% | O=C(O)c1ccc2nc(CN3CCC(c4cccc(OCc5ccc(Cl)cc5F)n4)CC3)n(C[C@H]3CCO3)c2n1 [Compound 216B, 2-[(4-{6-[(4-chloro-2-fluorobenzyl)oxy]pyridin-2-yl}piperidin-1-yl)methyl]-3-[(2R)-oxetan-2-ylmethyl]-3H-imidazo[4,5-b]pyridine-5-carboxylic acid] | – |
| 0.34 nM | 78% | 7.4 nM | 94% | CCn1cncc1Cn1c(CN2CCC(c3cccc(OCc4ccc(C#N)cc4F)n3)CC2)nc2ccc(C(=O)O)cc21 [Compound 162B, 2-[(4-{6-[(4-cyano-2-fluorobenzyl)oxy]pyridin-2-yl}piperidin-1-yl)methyl]-1-[(1-ethyl-1H-imidazol-5-yl)methyl]-1H-benzimidazole-6-carboxylic acid] | – |
| 0.34 nM | 89% | 2.2 nM | 97% | COCCn1c(CN2CCN(c3cccc(OCc4ccc(Cl)cc4F)n3)[C@@H](CO)C2)nc2ccc(C(=O)O)cc21 [Compound 185B, 2-{[(3R)-4-{6-[(4-chloro-2-fluorobenzyl)oxy]pyridin-2-yl}-3-(hydroxymethyl)piperazin-1-yl]methyl}-1-(2-methoxyethyl)-1H-benzimidazole-6-carboxylic acid] | – |
